# Source: patent publication US10781182B2, “Compounds, process for obtaining the compounds, pharmaceutical composition, use of the compounds and method for treating psychiatric disorders and/or sleep disorders” (ACHÉ LABORATÓRIOS FARMACÊUTICOS S.A., priority 2016, dated 2020)
# Like-named read-outs stand apart in the source and are kept apart here.
# Key:
# [1] = Water solubility (shake-flask, PBS pH 7.4); format: physicochemical; conditions: aqueous buffer, thermodynamic from solid
# Description: In addition, chromatographic purity (%) was defined as the calculation of the main peak area relative to the calculation of the peak area integrate of the standard HPLC calibration chromatogram. A standard calibration chromatogram was then generated for each compound tested along with a UV/VIS spectrum with maximal labeled absorbance. The shake-flash technique was used with constant stirring during incubation to keep a uniform medium for 24 hours in PBS at pH 7.4.
# CYP1A2 = CYP1A2 (Homo sapiens (Human), UniProt P05177); experiment: CYP inhibition, fluorogenic substrate; format: in vitro ADME
# From the text: The CYP inhibition test used fluorogenic substrates specific to each CYP to check for inhibition thereof by detection of the expected metabolite using a fluorimetric method. Recombinant CYPs (CYP2B6, CYP2C8, […], CYP2C19, CYP2D6, CYP3A4) from specific humans for each cytochrome family, subfamily and polypeptide were used. The following were used as substrates: CEC (3-Cyano-7-Ethoxycoumarin) which forms as metabolite CHC (3-Cyano-7-Hydroxycoumarin); EFC (7-Ethoxy-4-trifluoromethyl coumarin), forming the metabolite HFC (7-Hydroxytri fluoromethylcoumarin); DBF (Dibenzylfluorescein) and its respective fluorescein metabolite; MFC (7-Methoxy-4-trifluoromethylcoumarin) which forms the metabolite HFC (7-Hydroxytrifluoromethylcoumarin); BFC (7-Benzyloxy-Trifluoromethylcoumarin) and its metabolite HFC; and BzRes (benzyloxyresorufin) to form resofurine. The detection of the metabolite was done with a fluorimetric method: analytical technique to identify and characterize the amount of substance by excitation using a beam of ultraviolet light and measurement of the emitted fluorescence. For detection, a 96-well plate was used. Each sample was tested in two wells (n=2) as standard condition. At least 04 wells were separated for vehicle (control). Compounds were tested at a concentration […], standard for this assay. They were preincubated with a NADPH generator system in a phosphate buffer (pH 7.4) for 5 minutes at 37° C. The reaction was started by adding the specific CYP enzymes, substrate and bovine serum albumin (BSA<0.4 mg/ml). Incubations were performed between 20-50 minutes at 37° C. according to the specific parameter of each fluorogenic substrate, for the evaluated component. Fluorescence at each well was detected before and after the incubation period.
# [2] = Pharmacokinetics (PK) in mouse, I.V. and oral; format: in vivo, CD-1 mice
# Description: PK tests were performed with CD-1 mice, using 4 animals per molecule tested, 2 animals for pharmacokinetic analysis by intravenous (IV) administration and 2 animals for oral administration. The treatment was carried out in a single dose: I.V. group with dose of 1 mg/kg and Oral group with dose of 10 mg/kg. […] Blood collection was performed after euthanasia at 08 defined time points and at 24 hours post-dose. The pharmacokinetic analysis parameters detected for Group IV were: half-life (t½), drug concentration at time zero (C0), last measurable plasma concentration (AUClast), area under the plasma concentration curve extrapolation percentage (AUC % ext), area under the plasma concentration curve extrapolation to infinity (AUCinf), volume of distribution (Vz), steady state volume of distribution (Vss), clearance (CL) and mean residence time (MRT). The parameters evaluated for the Oral group were: bioavailability (F %), maximum concentration reached (Cmax), time to reach maximum plasma concentration (Tmax), last measurable plasma concentration (AUClast), area under the plasma concentration curve extrapolation percentage (AUC % ext), area under the plasma concentration curve extrapolation to infinity (AUCinf), area under the plasma concentration curve extrapolation to infinity versus dose (AUCinf/Dose), half-Life (t½), and mean residence time (MRT).
# MT1 receptor = MT1 receptor (Homo sapiens (Human), UniProt P48039); experiment: MT1 functional assay; conditions: MT1 and MT2 receptors
# [3] = CD-1, plasma, intravenous 1 mg/kg
# Chain of CYP1A2 (P05177 whole entry): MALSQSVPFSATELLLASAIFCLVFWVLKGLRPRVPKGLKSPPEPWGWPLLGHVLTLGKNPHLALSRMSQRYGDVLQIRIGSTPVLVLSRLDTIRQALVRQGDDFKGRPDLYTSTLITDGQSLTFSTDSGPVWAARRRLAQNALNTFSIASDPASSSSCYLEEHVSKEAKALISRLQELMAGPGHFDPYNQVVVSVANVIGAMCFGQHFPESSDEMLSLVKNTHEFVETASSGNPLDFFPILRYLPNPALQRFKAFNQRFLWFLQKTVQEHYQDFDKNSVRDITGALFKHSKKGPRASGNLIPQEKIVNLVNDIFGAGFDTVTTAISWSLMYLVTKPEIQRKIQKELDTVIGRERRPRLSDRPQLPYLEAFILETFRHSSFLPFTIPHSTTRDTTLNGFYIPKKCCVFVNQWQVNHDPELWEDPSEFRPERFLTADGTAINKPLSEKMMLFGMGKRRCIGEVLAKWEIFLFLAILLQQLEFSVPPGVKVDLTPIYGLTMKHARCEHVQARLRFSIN
# Chain of MT1 receptor (P48039 whole entry): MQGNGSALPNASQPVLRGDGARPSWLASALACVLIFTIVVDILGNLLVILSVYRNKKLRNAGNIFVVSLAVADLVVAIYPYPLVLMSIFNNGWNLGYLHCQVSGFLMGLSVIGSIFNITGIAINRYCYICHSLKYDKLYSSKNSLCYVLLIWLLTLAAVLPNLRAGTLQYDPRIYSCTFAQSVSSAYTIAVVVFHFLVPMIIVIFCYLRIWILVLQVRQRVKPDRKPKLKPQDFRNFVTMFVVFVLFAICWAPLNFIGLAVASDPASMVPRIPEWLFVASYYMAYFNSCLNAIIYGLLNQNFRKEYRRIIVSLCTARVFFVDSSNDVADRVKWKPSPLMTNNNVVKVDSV
structure (smiles),measurement,setting,value
"COc1ccc2cccc(CCNC(C)=O)c2c1 [IA2-76, agomelatine, reference compound]",solubility at 24 h,[1],196 µM
same,affinity to cytochrome isoforms (in words),CYP1A2,high affinity
same,C0,[2]; [3],811 ng/mL
same,clearance,[2]; [3],116 mL/min/kg
same,half-life,[2]; [3],8.94 min
same,AUC(0-t),"[2]; CD-1, plasma, oral 10 mg/kg",30.3 ng·h/mL
same,bioavailability,"[2]; CD-1, plasma, oral 10 mg/kg vs intravenous 1 mg/kg, read-out: F (%) bioavailability",2.42%
same,Cmax,"[2]; CD-1, plasma, oral 10 mg/kg, read-out: Cmax",21.9 ng/mL
same,Tmax,"[2]; CD-1, plasma, oral 10 mg/kg, read-out: Tmax",15 min
same,Cmax,[2]; oral 10 mg/kg,21.9 ng/mL
same,Tmax,[2]; oral 10 mg/kg,15 min
same,F (%) bioavailability,[2]; oral 10 mg/kg vs intravenous 1 mg/kg,2.42%
same,"intrinsic activity (agonist, antagonist or inverse agonist)",MT1 receptor,agonist
